# Test results taken from patent US9073820B2, “Pharmaceutical compositions comprising napthamides” (OREGON HEALTH & SCIENCE UNIVERSITY, priority 2011, dated 2015).
# Where two headings read alike, the source gives them in different places.
# Tests used:
# [1] = test system: MCF-7 (human breast cancer cells); assay: MTT cell growth inhibition, 72 h, MCF-7; format: cell-based; details: MCF7, 72 h, read-out: MCF-7 (GI50)
# Procedure: (§1) A549 (human lung cancer cells), MCF-7 (human breast cancer cells), MDA-MB-231 (human breast cancer cells) and MDA-MB-468 cells (human breast cancer cells) were maintained in Dulbecco's modified Eagle medium (DMEM, Invitrogen, Carlsbad, Calif.) supplemented with 10% (v/v) fetal calf serum (Sigma, St. Louis, Mo.), 10 μg/mL penicillin and 10 μg/mL streptomycin (Invitrogen, Carlsbad, Calif.) at 37° C. under 5% CO2. On the day of experiment, different concentrations of the drugs (final concentration 10^−8-10^−4 M) in duplicates were added to the cells and the cells were further incubated for 72 h. Then, the number of live cells was quantified by 3-(4,5-dimethyl-2-thiazolyl)-2,5-diphenyl-2H-tetrazolium bromide (MTT reagent, Sigma, St. Louis, Mo.).
# (§2) The amount of reduced MTT formazan generated by live cells was determined by its absorbance at 570 nm after subtracting the background absorbance at 690 nm. The percent of cell growth was expressed as (A570(treated)−A570(initial))/(A570(vehicle treated)−A570(initial))*100, where A570(initial) represents initial cell population when drugs are added. The GI50 were derived from non-linear regression analysis of the dose-response curve using Prism 4.0 (GraphPad). […] Data were presented as mean±SD of at least two measurements in duplicates unless noted.
# [2] = test system: MDA-MB-468 cells (human breast cancer cells); assay: MTT cell growth inhibition, 72 h, MDA-MB-468; format: cell-based; details: MDA-MB-468, 72 h, read-out: MDA-MB-468 (GI50)
# Procedure: as §1, §2
# [3] = test system: CREB-mediated gene transcription; assay: CREB reporter (pCRE-RLuc) assay in HEK 293T cells, forskolin-stimulated; format: cell-based
# Procedure: HEK293T cells in a 10-cm plate were transfected with pCRE-RLuc (6.0 μg) using Lipofectamine™ 2000 (Invitrogen, Carlsbad, Calif.) according to manufacturer's protocol. After 3 h, the transfected cells were collected and replated into 96-well plates (1-2×10^4 cells/well). The cells were allowed to attach to the bottom of the wells for overnight, when compounds of different concentrations were added to the cells. Forskolin (final concentration of 10 μM, LC Laboratories, Woburn, Mass.) was added 30 min after the addition of the compounds. The cells were then incubated at 37° C. for 5 h. The media in the wells were removed and the cells were then lysed in 30 μL of 1×Renilla luciferase lysis buffer (Promega, Madison, Wis.). To measure Renilla luciferase activity, five μL of the lysate was combined with 30 μL of benzyl-coelenterazine (Nanolight, Pinetop, Ariz.) solution in PBS (pH 7.4, 10 μg/mL). The sample protein concentration was determined by Dye Reagent Concentrate (Bio-Rad, Hercules, Calif.). The Renilla luciferase activity was normalized to protein content in each well and expressed as relative luciferase unit/μg protein (RLU/μg protein). The IC50 was derived from non-linear regression analysis of the RLU/μg protein-concentration curve in Prism 5.0 (La Jolla, Calif.).
# KIX-KID = biological target: T1, KIX-KID (Homo sapiens, UniProt Q92793); assay: KIX-KID inhibition, split Renilla luciferase complementation (RLucC-KIX and KID-RLucN); format: binding; details: 4° C., 24 h
# T1 construct: made in house
# T1 sequence (Q92793 587-666 limits assumed): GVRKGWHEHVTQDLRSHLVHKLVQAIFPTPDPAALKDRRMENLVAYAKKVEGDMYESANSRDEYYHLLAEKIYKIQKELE
# Procedure: RLucC-KIX (15 ng) and KID-RLucN-containing cell lysates (0.5 mg) were mixed together in Renilla luciferase lysis buffer (Promega, Madison, Wis.) in the presence of different concentrations of compounds. The final volume of the incubation mixture is 30 μL. The mixture was incubated at 4° C. for 24 h. Then Renilla luciferase activity was measured by combining 5 μL of incubation mixture with 30 μL of coelenterazine solution in PBS (pH 7.4, 10 μg/mL).
# [4] = Pharmacokinetics of Compound 4 in mice (IV and PO); format: in vivo, BALB/c nude female mice
# Procedure: The pharmacokinetics of Compound 4 was assessed in BALB/c nude female mice. Doses were 2 mg/kg administered intravenously (IV) and 20 mg/kg administered orally (PO). The intravenous formulation was administered in 1% N-Methyl-2-pyrrolidone (NMP) in water and was a clear solution. The per os solution was in 1.3% NMP+5% Tween-20® in a clear solution.
# [5] = female, BALB/c nude, mouse, plasma, intravenous, 2 mg/kg, 2 mg/kg IV, G1, read-out: Plasma concentration G1
# [6] = female, BALB/c nude, mouse, plasma, intravenous, 2 mg/kg, 2 mg/kg IV, G2, read-out: Plasma concentration G2
# [7] = female, BALB/c nude, mouse, plasma, intravenous, 2 mg/kg, 2 mg/kg IV, G3, read-out: Plasma concentration G3
# [8] = female, BALB/c nude, mouse, plasma, intravenous, 2 mg/kg, 2 mg/kg IV, mean, read-out: Plasma concentration Mean IV
# [9] = female, BALB/c nude, mouse, plasma, oral, 20 mg/kg, 20 mg/kg PO, G4, read-out: Plasma concentration G4
# [10] = female, BALB/c nude, mouse, plasma, oral, 20 mg/kg, 20 mg/kg PO, G5, read-out: Plasma concentration G5
# [11] = female, BALB/c nude, mouse, plasma, oral, 20 mg/kg, 20 mg/kg PO, G6, read-out: Plasma concentration G6
# [12] = female, BALB/c nude, mouse, plasma, oral, 20 mg/kg, 20 mg/kg PO, mean, read-out: Plasma concentration Mean PO
# [13] = female, BALB/c nude, mouse, plasma, 2 mg/kg IV
# [14] = female, BALB/c nude, mouse, plasma, 20 mg/kg PO
smiles,measurement,setting,value
NCCCOc1cc2ccccc2cc1C(=O)NCCCOc1cc2ccccc2cc1C(=O)Nc1ccc(Cl)cc1O [Compound 4],GI50,[1],140 ± 29 nM
same,GI50,[2],210 ± 71 nM
same,CREB-mediated gene transcription in HEK 293T cells (in words),[3]; HEK 293T cells,inhibited
same,IC50,"[3]; Homo sapiens, HEK-293T, 5 h, read-out: CREB reporter inhibition (IC50)",2220 ± 380 nM
same,IC50,KIX-KID,2540 ± 280 nM
same,CI,[4]; 2 mg/kg IV,12.7 mL/min/kg
same,concentration at 0.083 hr,[4]; [5],1610 ng/mL
same,concentration at 0.083 hr,[4]; [6],1980 ng/mL
same,concentration at 0.083 hr,[4]; [7],1540 ng/mL
same,concentration at 0.083 hr,[4]; [8],1710 ng/mL
same,concentration at 0.25 hr,[4]; [5],1140 ng/mL
same,concentration at 0.25 hr,[4]; [6],1900 ng/mL
same,concentration at 0.25 hr,[4]; [7],1610 ng/mL
same,concentration at 0.25 hr,[4]; [8],1550 ng/mL
same,concentration at 0.5 hr,[4]; [5],1130 ng/mL
same,concentration at 0.5 hr,[4]; [6],966 ng/mL
same,concentration at 0.5 hr,[4]; [7],1170 ng/mL
same,concentration at 0.5 hr,[4]; [8],1090 ng/mL
same,concentration at 1 hr,[4]; [5],528 ng/mL
same,concentration at 1 hr,[4]; [6],378 ng/mL
same,concentration at 1 hr,[4]; [7],419 ng/mL
same,concentration at 1 hr,[4]; [8],442 ng/mL
same,concentration at 2 hr,[4]; [5],275 ng/mL
same,concentration at 2 hr,[4]; [6],178 ng/mL
same,concentration at 2 hr,[4]; [7],105 ng/mL
same,concentration at 2 hr,[4]; [8],186 ng/mL
same,concentration at 4 hr,[4]; [5],59.9 ng/mL
same,concentration at 4 hr,[4]; [6],71 ng/mL
same,concentration at 4 hr,[4]; [7],58.1 ng/mL
same,concentration at 4 hr,[4]; [8],63 ng/mL
same,concentration at 8 hr,[4]; [5],30.2 ng/mL
same,concentration at 8 hr,[4]; [6],58.7 ng/mL
same,concentration at 8 hr,[4]; [7],56.6 ng/mL
same,concentration at 8 hr,[4]; [8],48.5 ng/mL
same,concentration at 24 hr,[4]; [5],15.3 ng/mL
same,concentration at 24 hr,[4]; [6],16.4 ng/mL
same,concentration at 24 hr,[4]; [7],13.3 ng/mL
same,concentration at 24 hr,[4]; [8],15 ng/mL
same,concentration at 0.25 hr,[4]; [9],75.5 ng/mL
same,concentration at 0.25 hr,[4]; [10],92.7 ng/mL
same,concentration at 0.25 hr,[4]; [11],101 ng/mL
same,concentration at 0.25 hr,[4]; [12],89.7 ng/mL
same,concentration at 0.5 hr,[4]; [9],92 ng/mL
same,concentration at 0.5 hr,[4]; [10],82.4 ng/mL
same,concentration at 0.5 hr,[4]; [11],166 ng/mL
same,concentration at 0.5 hr,[4]; [12],114 ng/mL
same,concentration at 1 hr,[4]; [9],402 ng/mL
same,concentration at 1 hr,[4]; [10],465 ng/mL
same,concentration at 1 hr,[4]; [11],139 ng/mL
same,concentration at 1 hr,[4]; [12],335 ng/mL
same,concentration at 2 hr,[4]; [9],353 ng/mL
same,concentration at 2 hr,[4]; [10],75 ng/mL
same,concentration at 2 hr,[4]; [11],269 ng/mL
same,concentration at 2 hr,[4]; [12],232 ng/mL
same,concentration at 4 hr,[4]; [9],128 ng/mL
same,concentration at 4 hr,[4]; [10],65.9 ng/mL
same,concentration at 4 hr,[4]; [11],118 ng/mL
same,concentration at 4 hr,[4]; [12],104 ng/mL
same,concentration at 8 hr,[4]; [9],45.8 ng/mL
same,concentration at 8 hr,[4]; [10],30.1 ng/mL
same,concentration at 8 hr,[4]; [11],41.7 ng/mL
same,concentration at 8 hr,[4]; [12],39.2 ng/mL
same,concentration at 12 hr,[4]; [9],46 ng/mL
same,concentration at 12 hr,[4]; [10],47.6 ng/mL
same,concentration at 12 hr,[4]; [11],48.2 ng/mL
same,concentration at 12 hr,[4]; [12],47.3 ng/mL
same,concentration at 24 hr,[4]; [9],7.2 ng/mL
same,concentration at 24 hr,[4]; [10],12.9 ng/mL
same,concentration at 24 hr,[4]; [11],34.1 ng/mL
same,concentration at 24 hr,[4]; [12],18.1 ng/mL
same,AUC(0-inf),[4]; [13],2630 ng·h/mL
same,AUC(0-t),[4]; [13],2420 ng·h/mL
same,half-life,[4]; [13],576 min
same,Vd,"[4]; female, BALB/c nude, mouse, plasma, 2 mg/kg IV, read-out: Vss",4.8 L/kg
same,AUC(0-inf),[4]; [14],1860 ng·h/mL
same,AUC(0-t),[4]; [14],1620 ng·h/mL
same,Cmax,[4]; [14],335 ng/mL
same,Tmax,[4]; [14],1 h
same,half-life,[4]; [14],546 min
same,bioavailability,"[4]; female, BALB/c nude, mouse, plasma, 20 mg/kg PO vs 2 mg/kg IV",7.1%
